Measurements: patent US5120727A, “Rapamycin dimers” (American Home Products Corporation, priority 1991, dated 1992)

Assays:
[1] = tested on: cells from the thymus of normal BALB/c mice; assay: comitogen-induced thymocyte proliferation procedure (LAF); assay type: cell-based; details: PHA and IL-1, 72 hours, tritiated thymidine last six hours
Procedure: Immunosuppresive activity of the compounds of the present invention was evaluated in an in vitro standard pharmacological test procedure to measure lymphocyte proliferation (LAF).
Briefly, cells from the thymus of normal BALB/c mice were cultured for 72 hours with PHA and IL-1 and pulsed with tritiated thymidine during the last six hours. […] Cells are harvested and incorporated; radioactivity is determined. Inhibition of lymphoproliferation is assessed in percent change in counts per minute from non-drug treated controls. The results are expressed by the following ratio: [formula]

transplant rejection = details: in vivo; cited from earlier work
Candida albicans = details: both in vitro and in vivo; cited from earlier work
[2] = tested on: experimental allergic encephalomyelitis model; details: model for multiple sclerosis; cited from earlier work
[3] = cited from earlier work
IGE-like antibodies = details: in vivo; cited from earlier work
adjuvant arthritis model = details: model for rheumatoid arthritis; cited from earlier work

Row | Structure (SMILES) | R/*A at 10 nM (relative potency of analogs/rapamycin) [1] | R/*A at 100 nM (relative potency of analogs/rapamycin) [1] | further results
1 | CO[C@H]1C[C@@H]2CC[C@@H](C)[C@@](O)(O2)C(=O)C(=O)N2CCCC[C@H]2C(=O)O[C@H]([C@H](C)C[C@@H]2CC[C@@H](OC(=O)CCCCCCC(=O)O[C@@H]3CC[C@@H](C[C@@H](C)[C@@H]4CC(=O)[C@H](C)/C=C(\C)[C@@H](O)[C@@H](OC)C(=O)[C@H](C)C[C@H](C)/C=C/C=C/C=C(\C)[C@@H](OC)C[C@@H]5CC[C@@H](C)[C@@](O)(O5)C(=O)C(=O)N5CCCC[C@H]5C(=O)O4)C[C@H]3OC)[C@H](OC)C2)CC(=O)[C@H](C)/C=C(\C)[C@@H](O)[C@@H](OC)C(=O)[C@H](C)C[C@H](C)/C=C/C=C/C=C/1C [Example 3, Rapamycin-42,42'-diester with octanedioic acid] | 0.59 | 1.0 | 
2 | CO[C@H]1C[C@@H]2CC[C@@H](C)[C@@](O)(O2)C(=O)C(=O)N2CCCC[C@H]2C(=O)O[C@H]([C@H](C)C[C@@H]2CC[C@@H](O)[C@H](OC)C2)CC(=O)[C@H](C)/C=C(\C)[C@@H](O)[C@@H](OC)C(=O)[C@H](C)C[C@H](C)/C=C/C=C/C=C/1C [Rapamycin] |  |  | inhibiting transplant rejection (transplant rejection): effective in inhibiting transplant rejection; antifungal activity (Candida albicans): antifungal activity; effect in the experimental allergic encephalomyelitis model [2]: effective; antitumor activity ([3]; alone): antitumor activity; antitumor activity in combination ([3]; in combination with picibanil): antitumor activity; inhibition of the formation of IGE-like antibodies (IGE-like antibodies): effectively inhibited; effect in the adjuvant arthritis model (adjuvant arthritis model): effective
3 | CO[C@H]1C[C@@H]2CC[C@@H](C)[C@@](O)(O2)C(=O)C(=O)N2CCCC[C@H]2C(=O)O[C@H]([C@H](C)C[C@@H]2CC[C@@H](OC(=O)CCCCCCCC(=O)O[C@@H]3CC[C@@H](C[C@@H](C)[C@@H]4CC(=O)[C@H](C)/C=C(\C)[C@@H](O)[C@@H](OC)C(=O)[C@H](C)C[C@H](C)/C=C/C=C/C=C(\C)[C@@H](OC)C[C@@H]5CC[C@@H](C)[C@@](O)(O5)C(=O)C(=O)N5CCCC[C@H]5C(=O)O4)C[C@H]3OC)[C@H](OC)C2)CC(=O)[C@H](C)/C=C(\C)[C@@H](O)[C@@H](OC)C(=O)[C@H](C)C[C@H](C)/C=C/C=C/C=C/1C [Example 4, Rapamycin-42,42'-diacid with nonanedioic acid] | 1.10 | 1.0 | 
4 | CO[C@H]1C[C@@H]2CC[C@@H](C)[C@@](O)(O2)C(=O)C(=O)N2CCCC[C@H]2C(=O)O[C@H]([C@H](C)C[C@@H]2CC[C@@H](OC(=O)CCCCC(=O)O[C@@H]3CC[C@@H](C[C@@H](C)[C@@H]4CC(=O)[C@H](C)/C=C(\C)[C@@H](O)[C@@H](OC)C(=O)[C@H](C)C[C@H](C)/C=C/C=C/C=C(\C)[C@@H](OC)C[C@@H]5CC[C@@H](C)[C@@](O)(O5)C(=O)C(=O)N5CCCC[C@H]5C(=O)O4)C[C@H]3OC)[C@H](OC)C2)CC(=O)[C@H](C)/C=C(\C)[C@@H](O)[C@@H](OC)C(=O)[C@H](C)C[C@H](C)/C=C/C=C/C=C/1C [Example 1, Rapamycin-42,42'-diester with hexanedioic acid] | 0.95 | 1.0 | 
5 | CO[C@H]1C[C@@H]2CC[C@@H](C)[C@@](O)(O2)C(=O)C(=O)N2CCCC[C@H]2C(=O)O[C@H]([C@H](C)C[C@@H]2CC[C@@H](OC(=O)CCCCCC(=O)O[C@@H]3CC[C@@H](C[C@@H](C)[C@@H]4CC(=O)[C@H](C)/C=C(\C)[C@@H](O)[C@@H](OC)C(=O)[C@H](C)C[C@H](C)/C=C/C=C/C=C(\C)[C@@H](OC)C[C@@H]5CC[C@@H](C)[C@@](O)(O5)C(=O)C(=O)N5CCCC[C@H]5C(=O)O4)C[C@H]3OC)[C@H](OC)C2)CC(=O)[C@H](C)/C=C(\C)[C@@H](O)[C@@H](OC)C(=O)[C@H](C)C[C@H](C)/C=C/C=C/C=C/1C [Example 2, Rapamycin-42,42'-diester with heptanedioic acid] | 0.28 | 0.96 | 
